Laboratory results: patent US5532231A, “Antibacterial agent” (priority 1994, dated 1996)
“Also recorded” adds a separate entry of the source.

Key:
E. coli K-12 = experiment: Antimicrobial spectrum, liquid media, viable cell count; format: cell-based, Escherichia coli; details: saturating concentrations
Protocol: (§1) Saturated solutions of TA and Focusin were prepared by adding 1.14 μg TA and 7 μg Focusin to 1 ml LB (final conc. of 1% ethanol). About 10^5 bacteria of various strains were then added. The control was bacteria in the same medium with no antibacterial agents. The bacteria were introduced at 37° C. with shaking at 100 rpm. When the control became turbid, viable cell count was performed on LB agar plates. Growth inhibition is presented as percentage of the no antibiotic control.

E. coli ESS [1] = experiment: as above; format: cell-based, Escherichia coli; details: saturating concentrations
Protocol: as §1

[2] = format: physicochemical
Protocol: Focusin and TA at concentrations of 3 mg/ml were diluted either in ethanol or in saline containing 1% ethanol to yield a final concentration in each case of 30 μg/ml. The solutions were mixed at 37° C. for one hour under shaking, and then were centrifuged at 5000 g for 10 minutes. Several samples were taken from the supernatants of the tubes and were applied on disc filters in order to determine the concentration of the antibacterial agents in the saline and ethanol solutions, by the paper disc bioassay method.

Enterobacter = experiment: Antimicrobial spectrum, liquid media, viable cell count; format: cell-based; details: saturating concentrations
Protocol: as §1

Serratia marcescens = experiment: as above; format: cell-based; details: saturating concentrations
Protocol: as §1

E. coli ESS [3] = experiment: Killing effect of the washed treated mouse tissue; format: cell-based, Escherichia coli; details: for Inhibition % by the treated tissue*** / Inhibition % by the treated tissue**: 10 μg Focusin; for Inhibition % by the treated tissue***: after third transfer
Protocol: (§2) Focusin was tested in the same manner as that described above (under 8.1) with the exception that the tissues in the test tube were washed four times with a solution of 1 ml sterile saline. Each saline wash was for 1 hour at 37° C. Following incubation, the washing saline solution was added to an exponentially growing cultures of E. coli ESS in a concentration of 10^5 cells/ml.
(§3) The cultures with the saline wash were incubated at 37° C. for 6 hours and then viable cell count was performed in order to estimate the amount of killing by the antibacterial agent that were released from the tissues. After the four washes the tissues were transferred to 10^5 E. coli ESS log cultures and were then incubated for 5 hours. The tissues were transferred in this way for three times, each time the percentage of inhibition by the treated tissue was measured by viable count.
(§4) The tissues were treated as described in Section 8.2 above.
After the fourth wash, the treated tissues were transferred to E. coli ESS cultures (10^5 cells) in nutrient broth. The culture tubes were then incubated at 37° C. for 6 hours and the extent of growth inhibition was measured by viable cell count. The treated tissues were transferred to E. coli cultures two more times (a total of three times), and each time the percentage of growth inhibition by the treated tissues was checked.

E. coli ESS [4] = experiment: Bactericidal effect when bound to mouse tissues; format: cell-based, Escherichia coli; details: 4 μg TA or 20 μg Focusin, 5 h
Protocol: Two mice were sacrificed by exposure to ether. The bladder, eyes, intestines, lungs, heart, teeth, liver, spleen and kidneys were removed by dissection. Each experimental set consisted of three test tubes. A piece of each tissue type was placed in each of the three test tubes. The amount of tissue per tube were as follows: bladder 1/3, eye 1/2, intestine 1 cm, lung 1/2, heart 1/3, fang tooth 1/2, liver 1/3, spleen 1/3 and kidney 1/2. One test tube contained a control tissue which was treated only with the solvent used for dissolving the antibacterial agent, usually 50% ethanol. The second and third test tubes contained tissues were treated with 4 μg TA or 20 μg Focusin, respectively.
Following application of the antibacterial agent or the control solution, the tissues were allowed to dry in a hood for 30 mins., and then placed in the test tubes.
One milliliter of sterile saline was then added to each test tube and the tubes were then incubated with shaking (50 rpm) at 37° C. for one hour. The amount of antibacterial agent that was released to the saline was measured following chloroform extraction by the disc filter assay.
The tissues were then transferred to exponentially growing cultures of E. coli ESS in NB at a concentration of 10^5 cells/ml. Incubation was at 37° C. and continued for 5 hours, following which the number of viable cells was checked.

E. coli ESS Kan^r = experiment: Sensitivity to combined exposure to light and air (remaining activity by paper disc bioassay); format: physicochemical, Escherichia coli
Protocol: Antibiotic activity against E. coli ESS Kan^r was determined by the paper disc filter assay (Leo et al., 1945). Unknown quantities of antibiotic TA or Focusin, dissolved in ethanol, saline or NB were applied to paper disc filters (6 mm diameter; Schleicher and Schull). After allowing the ethanol to evaporate in the hood for about 15 mins, the dry filters were placed on nutrient broth plates which had been overlaid with an overnight culture of E. coli ESS Kan^r as described above.
The diameter of the zone of inhibition was recorded after 18 hours in incubation at 37° C. The concentration of the antibacterial agents were determined from a standard inhibition curve prepared with known quantities of TA and Focusin.
100 ng of TA and Focusin dissolved in ethanol were applied to paper filters and allowed to dry in a hood for 15 mins. The filters were then exposed to light from a fluorescent lamp in the hood; the distance from the lamp to the filters was approximately 40 cm. The controls were placed in the dark under a plastic box within the hood.
After exposure of the filters to the light for varying periods of time, the remaining activity of the agents was measured by the paper disc bioassay and the results are shown in the following Table 1: […]

E. coli ESS [5] = experiment: Release of Focusin from mouse tissue: inhibition by the 4th wash liquid; format: cell-based, Escherichia coli; details: for Inhibition % by the 4th wash liquid: 10 μg Focusin
Protocol: as §2, §3, §4

Staphylococcus aureas = experiment: Antimicrobial spectrum, liquid media, viable cell count; format: cell-based, Staphylococcus aureus; details: saturating concentrations
Protocol: as §1

For `CCCC1OC(=O)C(C)CC(C)CCCCC(=O)CCCC(CC)CCCC(COC)CCC(O)C(O)CC(O)CNC1=O` (centres unmarked) [Focusin], the killing (E. coli K-12) was 100%, the killing (E. coli ESS [1]) was 100% and the “aqueous solubility compared with TA (in words)” value [2] was “higher aqueous solubility than TA”. The solubility in ethanol [2] was “completely soluble”, the solubility in saline ([2]; saline with 1% ethanol, 1 h) was “about 7 μg/ml” and the killing (Enterobacter) was 100%. The killing (Serratia marcescens) was 67%, the “inhibition by the washed tissues containing bound focusin” value (E. coli ESS [3]; all tissues, first transfer) was no less than 99% and the “inhibition after the third transfer (in words)” value (E. coli ESS [3]; bladder and eye) was “no inhibition was observed”. For the same molecule, the “Inhibition % by the treated tissue***” value (E. coli ESS [3]; bladder) was 0%, the “Inhibition % by the treated tissue**” value (E. coli ESS [3]; bladder, first transfer) was greater than 99% and the “Inhibition % by the treated tissue***” value (E. coli ESS [3]; eye) was 0%. The “Inhibition % by the treated tissue**” value (E. coli ESS [3]; eye, first transfer) was greater than 99%, the “Inhibition % by the treated tissue***” value (E. coli ESS [3]; heart) was 98% and the “Inhibition % by the treated tissue**” value (E. coli ESS [3]; heart, first transfer) was 100%. The “Inhibition % by the treated tissue***” value (E. coli ESS [3]; intestine) was 38%, the “Inhibition % by the treated tissue**” value (E. coli ESS [3]; intestine, first transfer) was 100% and the “Inhibition % by the treated tissue***” value (E. coli ESS [3]; kidney) was 90%. The “Inhibition % by the treated tissue**” value (E. coli ESS [3]; kidney, first transfer) was 100%, the “Inhibition % by the treated tissue***” value (E. coli ESS [3]; liver) was 100% and the “Inhibition % by the treated tissue**” value (E. coli ESS [3]; liver, first transfer) was 99%. The “Inhibition % by the treated tissue***” value (E. coli ESS [3]; lungs) was 17%, the “Inhibition % by the treated tissue**” value (E. coli ESS [3]; lungs, first transfer) was 100% and the “Inhibition % by the treated tissue***” value (E. coli ESS [3]; spleen) was 98%. The “Inhibition % by the treated tissue**” value (E. coli ESS [3]; spleen, first transfer) was 100%, the “Inhibition % by the treated tissue***” value (E. coli ESS [3]; teeth) was 91% and the “Inhibition % by the treated tissue**” value (E. coli ESS [3]; teeth, first transfer) was 100%. For the same molecule, the “Inhibition % by the treated tissue” value (E. coli ESS [4]; bladder) was 100%, the “Inhibition % by the treated tissue” value (E. coli ESS [4]; heart) was 90% and the “Inhibition % by the treated tissue” value (E. coli ESS [4]; intestine) was 100%. The “Inhibition % by the treated tissue” value (E. coli ESS [4]; kidney) was 100%, the “Inhibition % by the treated tissue” value (E. coli ESS [4]; liver) was 94% and the “Inhibition % by the treated tissue” value (E. coli ESS [4]; lungs) was 100%. The “Inhibition % by the treated tissue” value (E. coli ESS [4]; spleen) was 100%, the “Inhibition % by the treated tissue” value (E. coli ESS [4]; teeth) was 100% and the “activity after exposure to light and air” value (E. coli ESS Kan^r; 0 hours) was 100%. The “activity after exposure to light and air” value (E. coli ESS Kan^r; 1 hour) was 100%, the “activity after exposure to light and air” value (E. coli ESS Kan^r; 4 hours) was 100% and the “activity after exposure to light and air” value (E. coli ESS Kan^r; 6 hours) was 100%. The “activity after exposure to light and air” value (E. coli ESS Kan^r; 8 hours) was 100%, the “activity after exposure to light and air” value (E. coli ESS Kan^r; 20 hours) was 100% and the “stability to exposure to light and air (in words)” value (E. coli ESS Kan^r; combined light and air, up to 20 hours) was “much more stable to exposure to light and air than the TA antibiotic; also recorded: completely resistant to breakdown”. For the same molecule, the “inhibition of E. coli growth by the fourth liquid wash (in words)” value (E. coli ESS [5]; all tissues except liver) was “completely inhibit the E. coli growth”, the “Inhibition % by the 4th wash liquid” value (E. coli ESS [5]; bladder) was 100% and the “Inhibition % by the 4th wash liquid” value (E. coli ESS [5]; eye) was 100%. The “Inhibition % by the 4th wash liquid” value (E. coli ESS [5]; heart) was 100%, the “Inhibition % by the 4th wash liquid” value (E. coli ESS [5]; intestine) was 100% and the “Inhibition % by the 4th wash liquid” value (E. coli ESS [5]; kidney) was 100%. The “Inhibition % by the 4th wash liquid” value (E. coli ESS [5]; liver) was 67%, the “Inhibition % by the 4th wash liquid” value (E. coli ESS [5]; lungs) was 100% and the “Inhibition % by the 4th wash liquid” value (E. coli ESS [5]; spleen) was 100%. The “Inhibition % by the 4th wash liquid” value (E. coli ESS [5]; teeth) was 100% and the killing (Staphylococcus aureas) was 100%.
